Measured values reported in patent publication US20080306133A1, “INTRANASAL ADMINISTRATION OF ASENAPINE AND PHARMACEUTICAL COMPOSITIONS THEREFOR” (priority 2007, published 2008).
Where a name gives a salt, the structure may show the parent alone.

Assays:
Solubility in water = type: physicochemical; conditions: pH of about 4.0 to about 5.0
[1] = 10 mg/day (5 mg twice daily); randomised, double-blind, placebo-controlled trials; cited from earlier work
[2] = oral dosage form; cited from earlier work

solubility (Solubility in water) [µg/mL] | Structure (SMILES) | efficacy in the treatment of schizophrenia as assessed by the Positive and Negative Symptoms Scale (PANSS) [1] | bioavailability [2] [%]
~10000 | CN1CC2c3ccccc3Oc3ccc(Cl)cc3C2C1 (stereo not drawn) [Asenapine maleate] |  | 
 | CN1C[C@@H]2c3ccccc3Oc3ccc(Cl)cc3[C@H]2C1 (relative stereo) [Asenapine, trans-5-chloro-2-methyl-2,3,3a,12b-tetrahydro-1H-dibenz[2,3:6,7]oxepino[4,5-c]pyrrole] | effective | < 1
